The values that follow come from article PMC6372279 (eLife, 2019).

One experiment has as its target human IR-B (Homo sapiens, UniProt P06213). The experiment can be described thus: cell-based.
Experiment [1] has as its target human insulin receptor isoform B (hIR-B) (Homo sapiens, UniProt P06213). The experiment can be described thus: biochemical. The format is binding.
In experiment [2] the test system is STZ-induced hyperglycemic mice. Particulars: mouse, in vivo.

A word on the EC50: it is the midpoint of the concentration-response curve. A low value points to higher potency in that assay. In general, IC50 refers to the point on the concentration scale where inhibition reaches its midpoint. A low value points to greater potency in that assay.

Bridge positions count the residues as written; N and C are the ends. Square brackets hold non-standard residues; d marks the D form. Ends that are not written are not given here. I, II: the chains in the order shown. Gla = N[C@@H](CC(C(=O)O)C(=O)O)C(=O)O

human IR-B, sequence (P06213 28-758 limits assumed): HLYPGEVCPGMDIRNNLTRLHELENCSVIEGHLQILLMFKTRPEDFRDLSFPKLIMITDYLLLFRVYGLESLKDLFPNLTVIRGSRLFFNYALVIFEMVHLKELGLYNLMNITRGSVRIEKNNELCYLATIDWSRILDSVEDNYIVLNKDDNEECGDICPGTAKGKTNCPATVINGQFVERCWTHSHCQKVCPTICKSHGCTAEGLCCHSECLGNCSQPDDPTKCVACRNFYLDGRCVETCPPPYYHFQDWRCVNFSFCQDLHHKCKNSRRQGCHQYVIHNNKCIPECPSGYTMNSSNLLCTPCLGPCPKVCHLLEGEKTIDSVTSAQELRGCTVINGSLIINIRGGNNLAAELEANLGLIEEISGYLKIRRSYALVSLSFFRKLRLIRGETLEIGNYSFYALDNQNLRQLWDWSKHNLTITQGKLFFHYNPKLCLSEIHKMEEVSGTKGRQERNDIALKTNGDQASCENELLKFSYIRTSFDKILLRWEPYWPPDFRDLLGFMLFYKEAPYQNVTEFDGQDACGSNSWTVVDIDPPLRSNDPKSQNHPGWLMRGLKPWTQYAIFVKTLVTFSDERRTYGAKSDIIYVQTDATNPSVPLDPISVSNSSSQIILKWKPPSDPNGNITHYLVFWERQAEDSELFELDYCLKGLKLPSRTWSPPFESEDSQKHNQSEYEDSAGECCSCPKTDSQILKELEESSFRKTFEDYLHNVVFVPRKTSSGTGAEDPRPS
human IR-B, sequence (P06213 763-1382 partner limits assumed): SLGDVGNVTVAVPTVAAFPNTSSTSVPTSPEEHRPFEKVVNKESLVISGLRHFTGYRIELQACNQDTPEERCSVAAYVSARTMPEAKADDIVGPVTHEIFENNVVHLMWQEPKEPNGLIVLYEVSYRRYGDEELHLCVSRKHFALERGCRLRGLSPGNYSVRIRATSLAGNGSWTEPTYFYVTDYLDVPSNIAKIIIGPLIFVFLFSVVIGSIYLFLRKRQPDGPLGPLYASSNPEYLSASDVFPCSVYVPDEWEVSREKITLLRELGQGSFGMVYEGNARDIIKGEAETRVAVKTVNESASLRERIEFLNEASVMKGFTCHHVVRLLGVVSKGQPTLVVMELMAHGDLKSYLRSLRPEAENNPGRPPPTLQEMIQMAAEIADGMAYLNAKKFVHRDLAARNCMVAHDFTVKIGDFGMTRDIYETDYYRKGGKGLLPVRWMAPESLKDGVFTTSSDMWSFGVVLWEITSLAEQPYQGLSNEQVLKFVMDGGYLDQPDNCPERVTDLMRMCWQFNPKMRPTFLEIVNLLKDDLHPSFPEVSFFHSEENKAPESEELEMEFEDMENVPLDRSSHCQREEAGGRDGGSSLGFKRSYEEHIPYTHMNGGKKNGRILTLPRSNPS
human insulin receptor isoform B (hIR-B), sequence (P06213 28-758 limits assumed): as the sequence (P06213 28-758 limits assumed) above
human insulin receptor isoform B (hIR-B), sequence (P06213 763-1382 partner limits assumed): as the sequence (P06213 763-1382 partner limits assumed) above

As to “I: NSDTPKHRCGSELADQYVQLCH-NH2 / II: GIV[Gla]VCCDNPCTVATLRTFCH-OH (disulfide I:9-II:7, I:21-II:20, II:6-II:11) [Con-Ins G3]”, the “potency against the human IR-B compared with Con-Ins G1 (in words)” value at human IR-B is “more than one order of magnitude less potent”.

As to “I: NSDTPWNRCGSQITDSYR[Gla]LCPH / II: GVV[Gla]HCCKRACSNA[Gla]FMQFC-NH2 (disulfide I:9-II:7, I:21-II:20, II:6-II:11) [Con-Ins T2]”, it took 15.5 nM to reach a half-maximal effect on human IR-B (EC50). This substance displayed a half-maximal inhibitory concentration (IC50) in experiment [1] of 31.8 nM.

Take “I: SDSGTTLVRRRLCGS[Gla]LVTYLGELCLGN / II: GIV[Gla]DCCYNDCTDEKLKEYCHTLQ-NH2 (disulfide I:13-II:7, I:25-II:20, II:6-II:11) [Con-Ins K1]”: in experiment [2], the “Reversal of hyperglycemia (in words)” value is given as “effectively reversed hyperglycemia”. Further, in experiment [2] (SEM), the “Blood glucose, starting value” was 404 (±25) mg/dL.
